Measured values: ChEMBL document CHEMBL4334512, “Rationally Designed, Conformationally Constrained Inverse Agonists of RORγt-Identification of a Potent, Selective Series with Biologic-Like in Vivo Efficacy” (J Med Chem, 2019)

Key:
[1] = Total AUC in mouse at 4 mg/kg, po; type: ADME, organism-based; set-up: dose 4 mg/kg, route oral, time AUCmax; conditions: in vivo
[2] = molecular target: T1, Nuclear receptor ROR-alpha (Homo sapiens, UniProt P35398); experiment: Agonist activity at RORalpha (unknown origin) by Gal4-Luc reporter gene assay
T1 sequence (P35398 whole entry): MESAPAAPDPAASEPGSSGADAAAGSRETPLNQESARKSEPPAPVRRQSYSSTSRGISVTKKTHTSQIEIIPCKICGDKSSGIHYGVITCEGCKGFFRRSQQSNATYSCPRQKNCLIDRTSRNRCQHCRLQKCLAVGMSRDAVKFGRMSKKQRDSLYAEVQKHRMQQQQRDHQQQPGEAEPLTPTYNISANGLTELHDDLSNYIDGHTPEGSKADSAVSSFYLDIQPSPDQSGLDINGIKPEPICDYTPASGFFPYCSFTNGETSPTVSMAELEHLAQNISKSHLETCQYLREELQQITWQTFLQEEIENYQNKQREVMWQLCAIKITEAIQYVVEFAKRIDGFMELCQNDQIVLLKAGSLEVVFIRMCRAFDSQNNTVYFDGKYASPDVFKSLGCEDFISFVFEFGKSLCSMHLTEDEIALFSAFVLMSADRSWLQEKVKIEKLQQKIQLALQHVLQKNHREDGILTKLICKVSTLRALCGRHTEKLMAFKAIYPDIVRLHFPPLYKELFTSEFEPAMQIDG

[3] = Cmax in dog at 1 mg/kg, po; type: ADME, organism-based, Canis lupus familiaris; set-up: dose 1 mg/kg, route oral; conditions: in vivo
Mus musculus [4] = experiment: Suppression of ear thickness in mouse model of IL-23 induced acanthosis model of psoriasis at 3 mg/kg, po BID for 10 days measured every other day relative to anti-IL-23 positive control; type: functional
Cytochrome P450 2C19 = Cytochrome P450 2C19 (Homo sapiens, UniProt P33261); experiment: Inhibition of recombinant CYP2C19 (unknown origin); type: ADME
Sequence of Cytochrome P450 2C19 (P33261 whole entry): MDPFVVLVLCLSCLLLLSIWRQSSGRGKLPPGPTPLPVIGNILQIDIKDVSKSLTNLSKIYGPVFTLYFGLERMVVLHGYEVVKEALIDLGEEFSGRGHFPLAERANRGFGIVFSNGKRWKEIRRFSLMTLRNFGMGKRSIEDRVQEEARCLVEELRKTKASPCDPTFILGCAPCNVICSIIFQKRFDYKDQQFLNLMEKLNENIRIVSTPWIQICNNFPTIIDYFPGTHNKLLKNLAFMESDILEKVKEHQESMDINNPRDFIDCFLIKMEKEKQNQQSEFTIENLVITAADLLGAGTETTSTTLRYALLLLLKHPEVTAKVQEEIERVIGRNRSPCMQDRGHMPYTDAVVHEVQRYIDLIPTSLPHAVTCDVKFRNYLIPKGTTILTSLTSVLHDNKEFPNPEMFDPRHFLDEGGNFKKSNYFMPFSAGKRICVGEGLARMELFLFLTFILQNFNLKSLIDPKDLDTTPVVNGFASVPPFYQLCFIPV

Mus musculus [5] = experiment: Suppression of ear thickness in mouse model of IL-23 induced acanthosis model of psoriasis at 3 mg/kg, po BID for 10 days measured every other day relative to control; type: functional; conditions: 240 h
[6] = Oral bioavailability in mouse at 4 mg/kg; type: ADME, organism-based; conditions: in vivo
[7] = molecular target: T2, Oxysterols receptor LXR-beta (Homo sapiens, UniProt P55055); experiment: Activity at LXRbeta (unknown origin)
T2 sequence (P55055 whole entry): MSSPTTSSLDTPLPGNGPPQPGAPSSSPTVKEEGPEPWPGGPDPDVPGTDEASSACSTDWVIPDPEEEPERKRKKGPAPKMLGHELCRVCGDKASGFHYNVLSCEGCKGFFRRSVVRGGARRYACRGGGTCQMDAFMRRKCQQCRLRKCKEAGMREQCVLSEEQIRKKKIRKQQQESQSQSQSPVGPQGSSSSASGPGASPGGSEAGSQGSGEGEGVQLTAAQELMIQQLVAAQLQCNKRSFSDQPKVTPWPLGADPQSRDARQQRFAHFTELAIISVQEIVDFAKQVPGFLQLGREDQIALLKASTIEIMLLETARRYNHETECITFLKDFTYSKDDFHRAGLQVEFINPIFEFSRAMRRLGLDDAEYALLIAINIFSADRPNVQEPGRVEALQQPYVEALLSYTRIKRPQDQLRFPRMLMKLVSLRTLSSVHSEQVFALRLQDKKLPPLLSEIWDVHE

[8] = Half life in mouse liver microsomes; type: ADME, Microsome
[9] = Half life in mouse at 2 mg/kg, iv; type: ADME, organism-based; conditions: in vivo
[10] = molecular target: T3, Nuclear receptor ROR-gamma (Mus musculus, UniProt P51450); experiment: Inverse agonist activity at RORgammat in CD3/CD28/IL-1/IL-23-stimulated C57/B6 mouse whole blood assessed as reduction in IL17A production incubated for 1 hr before stimulation with CD3/CD28/IL-1/IL-23 for 24 hrs by AlphaLISA method; type: tissue-based
T3 sequence (P51450 whole entry): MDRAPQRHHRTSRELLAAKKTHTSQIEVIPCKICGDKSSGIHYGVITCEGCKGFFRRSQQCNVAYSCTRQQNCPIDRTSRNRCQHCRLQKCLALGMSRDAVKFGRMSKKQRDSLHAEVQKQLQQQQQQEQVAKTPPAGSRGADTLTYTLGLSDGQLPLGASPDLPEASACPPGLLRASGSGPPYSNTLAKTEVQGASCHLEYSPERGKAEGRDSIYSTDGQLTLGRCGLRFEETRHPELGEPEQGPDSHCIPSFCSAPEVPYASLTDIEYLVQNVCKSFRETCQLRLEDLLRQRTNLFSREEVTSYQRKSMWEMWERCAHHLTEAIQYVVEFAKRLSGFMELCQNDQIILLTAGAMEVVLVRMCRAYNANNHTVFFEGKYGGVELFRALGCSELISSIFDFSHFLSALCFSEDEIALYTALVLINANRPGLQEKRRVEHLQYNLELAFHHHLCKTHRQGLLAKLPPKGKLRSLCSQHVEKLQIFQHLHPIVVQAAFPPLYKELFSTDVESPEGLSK

Cytochrome P450 2C8 = molecular target: T4, Cytochrome P450 2C8 (Homo sapiens, UniProt P10632); experiment: Inhibition of recombinant CYP2C8 (unknown origin); type: ADME
T4 sequence (P10632 whole entry): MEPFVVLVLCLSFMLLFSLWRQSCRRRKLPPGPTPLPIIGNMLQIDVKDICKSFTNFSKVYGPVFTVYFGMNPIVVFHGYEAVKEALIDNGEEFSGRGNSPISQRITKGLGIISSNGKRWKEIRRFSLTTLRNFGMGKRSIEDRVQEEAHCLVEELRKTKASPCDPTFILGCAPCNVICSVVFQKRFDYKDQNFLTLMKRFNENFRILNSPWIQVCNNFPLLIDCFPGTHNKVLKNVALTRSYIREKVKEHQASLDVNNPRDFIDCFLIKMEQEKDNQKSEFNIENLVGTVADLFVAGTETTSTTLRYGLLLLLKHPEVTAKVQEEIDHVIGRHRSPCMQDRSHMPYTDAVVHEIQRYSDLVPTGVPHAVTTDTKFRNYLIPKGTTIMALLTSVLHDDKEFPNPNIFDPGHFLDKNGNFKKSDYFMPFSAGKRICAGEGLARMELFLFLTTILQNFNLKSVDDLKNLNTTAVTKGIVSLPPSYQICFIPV

Mus musculus [11] = experiment: Suppression of IL-17F RNA expression in skin region of mouse model of IL-23 induced acanthosis model of psoriasis at 3 mg/kg, po BID for 10 days measured every other day relative to control; type: functional; conditions: 240 h
[12] = Volume of distribution at steady state in dog at 1 mg/kg, iv; type: ADME, organism-based, Canis lupus familiaris; conditions: in vivo, read-out: Vdss
Mus musculus [13] = experiment: Suppression of ear thickness in mouse model of IL-23 induced acanthosis model of psoriasis at 30 mg/kg, po BID for 10 days measured every other day relative to control; type: functional; conditions: 240 h
[14] = molecular target: T3, Nuclear receptor ROR-gamma; experiment: Inverse agonist activity at RORgammat in mouse cells by mTh17 assay; type: cell-based
Mus musculus [15] = experiment: Suppression of IL-17F RNA expression in skin region of mouse model of IL-23 induced acanthosis model of psoriasis at 10 mg/kg, po BID for 10 days measured every other day relative to control; type: functional; conditions: 240 h
[16] = Half life in human liver microsomes; type: ADME, Microsome
[17] = Unbound fraction in rat serum; type: ADME, cell-free
[18] = Oral bioavailability in dog at 1 mg/kg; type: ADME, organism-based, Canis lupus familiaris; conditions: in vivo
[19] = Cmax in mouse at 4 mg/kg, po; type: ADME, organism-based; set-up: dose 4 mg/kg, route oral; conditions: in vivo

AUC [1]: 58.2 µM·h
EC50 [2]: > 10 µM
Cmax [3]: 700 nM
IC50 (Cytochrome P450 2C19): > 20 µM
bioavailability [6]: 100%
IC50 [7]: > 10 µM
half-life [8]: > 2 h
half-life [9]: 15 h
EC50 [10]: 0.44 µM
IC50 (Cytochrome P450 2C8): 15 µM
Vd [12]: 2.6 L/kg
EC50 [14]: 0.013 µM
half-life [16]: > 2 h
fraction unbound [17]: 0.011
bioavailability [18]: 100%
Cmax [19]: 2200 nM
Compound: O=C(N1CC[C@@]2(S(=O)(=O)c3ccc(F)cc3)c3ccc(C(F)(C(F)(F)F)C(F)(F)F)cc3CC[C@@H]12)C1(O)CCS(=O)(=O)CC1
Efficacy (Mus musculus [4]): 48%
inhibition in vivo at 3 mg/kg (Mus musculus [5]): 28%
inhibition in vivo at 3 mg/kg (Mus musculus [11]): 41%
inhibition in vivo at 30 mg/kg (Mus musculus [13]): 57%
inhibition in vivo at 10 mg/kg (Mus musculus [15]): 69%
